Test results taken from patent US20090143456A1, “Polyamine Analogs as Modulators of Cell Migration and Cell Motility” (priority 2005, published 2009).

Tested on: Human glioblastoma SNB19 cells
Assay: LIVE/DEAD reagent staining to assess compound toxicity at end of migration assay
Format: cell-based
Procedure: The 96 well slides were first coated with 0.1 μg/ml laminin, a motility stimulating substrate, in PBS for 1 hour at 37° C., rinsed three times in PBS, and then treated with 0.1% BSA in PBS for 1 hour at room temperature. Human glioblastoma SNB19 cells were plated at 3,000 cells per sedimentation channel and incubated overnight to allow cell sedimentation and attachment to the substrate. After removal of the manifold, the cells were treated with the compounds either at 0, 0.1 μM, 1 μM or […]. The experiment was done in duplicate with appropriate controls on each slide. After adding the compounds, the diameter of each cell population was initially measured using an inverted microscope and image analysis software (Scion Image Corp, Frederick, Md.). Cells were incubated an additional 72 hours in the presence (or not) of the pharmacological compounds. The diameter of each cell population was again assessed at 24 hours, 48 hours and 72 hours to calculate the overall migration rate. Migration results were reported as the specific radial movement (μm/day) of the cell population. […] At the end of the assay, cells were rinsed with PBS, then treated with LIVE/DEAD reagent staining (Molecular Probes, Eugene, Oreg.) to assess compound toxicity.
FIGS. 1-38 show data for the activity of compounds in the migration assay. […]

c1ccc(C2(NCCCCNCC3CC3CNCCCCNC3(c4ccccc4)CC3)CC2)cc1 (centres unmarked) [SL-11255, 1,2-bis((1-phenylcyclopropylaminobutyl)aminomethyl)cyclopropane]
cytotoxic effects (Live/Dead assay) (10 μM, at time of staining (end of 72 hour assay)): severe cytotoxic effects
toxicity (Live/Dead assay) (lower concentrations (below 10 μM)): not toxic
